Holding throughout (assay type): cell-based
One test has as its system AMPK. In words: AMPK activity, western blotting of phosphorylated AMPK in C2C12 myotubes. As to conditions: 10 µM, 24 hours, FIG. 2. The source says: AMP-activated protein kinase (AMPK) is a member of serine/threonine kinases, and is an enzyme known as an energy sensor which senses the intracellular energy state. Moreover, the activation of AMPK is known to show the effect of increasing glucose transport and promoting fatty acid oxidation in skeletal muscle, and to […] the synthesis of cholesterol and triglycerides, decrease lipogenesis, and increase fatty acid oxidation, and ketogenesis, and the like in the liver. Further, the activation of AMPK is known to reduce adipogenesis in adipose tissue and increase insulin secretion in pancreatic beta cells, thereby being able to be applied to the treatment of various metabolic diseases. Therefore, western blotting was performed in order to confirm the effect of the DMC derivatives of Example 1 on AMPK activity. More specifically, the C2C12 myoblasts were primarily cultured in DMEM supplemented with 10% fetal bovine serum, and then cultured in DMEM supplemented with 2% horse serum for 5 days to differentiate into myotubes. Then, the differentiated myotubes were treated with 10 µM DMC derivative and cultured for 24 hours, and then cells were collected, and disrupted using an ultrasonic disperser to obtain proteins. Next, western blotting was performed using a pAMPK antibody (Cell Signaling Technology) and an AMPK antibody (Cell Signaling Technology) to measure the amount of phosphorylated AMPK. 1 mM AICAR was used as a positive control, and 20 µg of protein was used for each sample in western blotting.
Background: In western blotting, separated proteins are transferred to a membrane and probed.

For test [1], the system named is human kidney proximal tubule epithelial cell (HK-2) cell line. As to the kind of experiment: Antioxidant effect, intracellular reactive oxygen species (DCF-DA) in HK-2 kidney cells after H2O2. The following applies: 1 µM for 18 hours, then 500 µM H2O2 for 6 hours, FIG. 6. Here is the method: First, the antioxidant effect was checked using kidney cells. More specifically, a human kidney proximal tubule epithelial cell (HK-2) cell line was treated with 1 µM DMC derivative and cultured for 18 hours. Then, 500 µM H2O2 was added to the culture medium and the culture medium was incubated for 6 hours. Thereafter, the amount of intracellular reactive oxygen species (iROS) was measured using dichlorohydro-fluorescein diacetate (DCF-DA).

Test [2] concerns rat aortic smooth muscle cells. In words: PDGF-induced migration of vascular smooth muscle cells. The following applies: 1 µM with 10 ng/mL PDGF; FIG. 4. Here is the method: Proliferation and migration of vascular smooth muscle cells are known to be essential steps in the progression of vascular diseases such as restenosis and arteriosclerosis. Therefore, in order to confirm the effect of the DMC derivatives of Example 1 on the migration of rat aortic smooth muscle cells, smooth muscle cells were treated with 10 ng/mL platelet-derived growth factor (PDGF) and 1 µM DMC derivative and cultured. Then, the degree of cell migration was measured.

The test system of test [3] is vascular endothelial cells (HUVECs) and THP-1 (human monocyte) immune cells. In words: Binding of THP-1 immune cells to TNFα-treated vascular endothelial cells (HUVECs). The following applies: 10 µM with 10 ng/mL TNFα, 24 hours, then THP-1 for 1 hour; FIG. 5. On the procedure:
In the early stages of progression of vascular diseases such as arteriosclerosis, adhesion materials are expressed in vascular endothelial cells due to various environmental factors, thereby increasing the binding of immune cells. Therefore, in order to check whether the DMC derivatives of Example 1 affect the binding between vascular endothelial cells and immune cells, vascular endothelial cells (HUVECs) were treated with 10 ng/mL TNFα and 10 µM DMC derivative and cultured for 24 hours. Then, THP-1 (human monocyte) immune cells labeled with a fluorescent protein were added to the culture solution, and the cells were additionally cultured for 1 hour. After the culture was completed, unbound immune cells were removed using a phosphate buffer solution, and then the degree of binding of immune cells to vascular endothelial cells was determined by measuring the intensity of fluorescence.

The text below walks through data of patent publication US20230248665A1, “COMPOSITION COMPRISING DIMETHYLCHALCONE DERIVATIVE FOR PREVENTION OR TREATMENT OF METABOLIC DISEASE” (SEOUL NATIONAL UNIVERSITY R & DB FOUNDATION, priority 2020, published 2023).

The structures appear in SMILES notation.

As to `COc1c(C)c(O)c(C)c(O)c1C(=O)/C=C/c1ccc(C)cc1` [Chemical Formula 3, 1-(2′,4′-dihydroxy-6′-methoxy-3′,5′-dimethylphenyl)-3-(4-tolyl)-2-propen-1-one], the “activity of AMPK (phosphorylated AMPK)” value with AMPK is given as “increased the activity of AMPK similarly to or more effectively than the positive controls”. In addition, in test [1], the “amount of intracellular reactive oxygen species (ROS)” value (shortened to “amount”) is listed as “effectively reduced ROS”. Also, the “migration of vascular smooth muscle cells” value (from here on “migration”) in test [2] is “similarly or more effectively suppressed cell migration by PDGF than AICAR and Rosi, which were used as positive controls, and DMC”. Besides, the “binding of immune cells to vascular endothelial cells (fluorescence)” value (from here on “binding of immune cells”) in test [3] is “similarly or more effectively suppressed the binding of immune cells than Rosi”.
Take `COCOc1c(C)c(O)c(C(=O)/C=C/c2ccc(SC)cc2)c(OC)c1C` [Chemical Formula 13, 1-(2′-hydroxy-4′-(methoxymethoxy)-6′-methoxy-3′,5′-dimethyphenyl)-3-(4-methylthiophenyl)-2-propen-1-one]: in test [1], the “amount” value is recorded as “effectively reduced ROS”. Moreover, the “migration” value in test [2] is “similarly or more effectively suppressed cell migration by PDGF than AICAR and Rosi, which were used as positive controls, and DMC”. Further, in test [3], the “binding of immune cells” value is recorded as “similarly or more effectively suppressed the binding of immune cells than Rosi”.
With `COCOc1c(C)c(O)c(C(=O)/C=C/c2cc(OC)ccc2OC)c(OC)c1C` [Chemical Formula 15, 1-(2′-hydroxy-4′-(methoxymethoxy)-6′-methoxy-3′,5′-dimethylphenyl)-3-(2,5-dimethoxyphenyl)-2-propen-1-one], the “activity of AMPK (phosphorylated AMPK)” value in the test with AMPK is “increased the activity of AMPK similarly to or more effectively than the positive controls”. In addition, the “amount” value in test [1] was “effectively reduced ROS”. The “migration” value in test [2] is “similarly or more effectively suppressed cell migration by PDGF than AICAR and Rosi, which were used as positive controls, and DMC”. In test [3], the “binding of immune cells” value was “similarly or more effectively suppressed the binding of immune cells than Rosi”.
Turning to `COc1c(C)c(OC)c(C(=O)/C=C/c2ccc(N(C)C)cc2)c(OC)c1C` [Chemical Formula 23, 1-(3′,5′-dimethyl-2′,4′,6′-trimethoxyphenyl)-3-(4-(N,N-dimethylamino)phenyl)-2-propen-1-one], the “activity of AMPK (phosphorylated AMPK)” value in the test on AMPK was “increased the activity of AMPK similarly to or more effectively than the positive controls”. In addition, the “amount” value in test [1] is listed as “effectively reduced ROS”. For the same compound, the “migration” value in test [2] was “similarly or more effectively suppressed cell migration by PDGF than AICAR and Rosi, which were used as positive controls, and DMC”. In test [3], the “binding of immune cells” value is listed as “similarly or more effectively suppressed the binding of immune cells than Rosi”.
`COCOc1c(C)c(O)c(C(=O)/C=C/c2ccc(F)cc2)c(OC)c1C` [Chemical Formula 24, 1-(2′-hydroxy-4′-(methoxymethoxy)-6′-methoxy-3′,5′-dimethylphenyl)-3-(4-fluorophenyl)-2-propen-1-one]: in the test on AMPK, the “activity of AMPK (phosphorylated AMPK)” value is “increased the activity of AMPK similarly to or more effectively than the positive controls”. Further, the “amount” value in test [1] is given as “effectively reduced ROS”. Further, the “migration” value in test [2] was “similarly or more effectively suppressed cell migration by PDGF than AICAR and Rosi, which were used as positive controls, and DMC”. Besides, the “binding of immune cells” value in test [3] is listed as “similarly or more effectively suppressed the binding of immune cells than Rosi”.
With `COCOc1c(C)c(O)c(C(=O)/C=C/c2ccccc2)c(OC)c1C` [Chemical Formula 25, 1-(2′-hydroxy-4′-(methoxymethoxy)-6′-methoxy-3′,5′-dimethylphenyl)-3-phenyl-2-propen-1-one], in the test on AMPK, the “activity of AMPK (phosphorylated AMPK)” value was “increased the activity of AMPK similarly to or more effectively than the positive controls”. In test [1], the “amount” value is “effectively reduced ROS”. The “migration” value in test [2] was “similarly or more effectively suppressed cell migration by PDGF than AICAR and Rosi, which were used as positive controls, and DMC”. In addition, the “binding of immune cells” value in test [3] is on record as “similarly or more effectively suppressed the binding of immune cells than Rosi”.
Turning to `CCOc1ccc(/C=C/C(=O)c2c(O)c(C)c(O)c(C)c2OC)cc1F` [Chemical Formula 33, 1-(2′,4′-dihydroxy-6′-methoxy-3′,5′-dimethylphenyl)-3-(4-ethoxy-3-fluorophenyl)-2-propen-1-one], the “amount” value in test [1] is reported as “effectively reduced ROS”. The “migration” value in test [2] was “similarly or more effectively suppressed cell migration by PDGF than AICAR and Rosi, which were used as positive controls, and DMC”. The “binding of immune cells” value in test [3] is given as “similarly or more effectively suppressed the binding of immune cells than Rosi”.
